Patent EP1311486B1, “USES OF THALIPORPHINE OR ITS DERIVATIVES IN TREATMENT OF CARDIAC DISEASES AND PREPARATION OF SAME” (Lotus Pharmaceutical Co., Ltd., priority 2000, dated 2002)
Marks after values point to notes of the source that are not given here.

Key:
[1] = tested on: guinea pig right ventricular strips; experiment: Ouabain-induced arrhythmia in electrically driven right ventricular strips; conditions: 10-20µM after 0.6-0.8µM ouabain
Procedure: The arrhythmia was then induced 5-10 minutes after. 10-20µM THP or its derivatives were administered to reverse the ouabain-induced arrhythmia. 6-7.
Referring to FIGs. […] The arrhythmia is then induced 5-10 minutes after.

plasma NO = experiment: Plasma NO release (NO/ozone chemiluminescence) after ischemia or ischemia-reperfusion; format: in vivo, rats; conditions: for NO (µmol/L) release, Ischemic / NO (µmol/L) release, Reperfused: Operated
Procedure: (§1) Myocardial ischemia was performed by a temporary tightening of the silk ligature around the left main coronary artery. Reperfusion was achieved by releasing the tension applied to the ligature (operated groups). Sham operated animals underwent all surgical procedures, apart from the fact that the silk, passing around the left coronary artery, was not tied (sham groups). Animals were infused with a bolus of THP (3.5x10^-7, 3.5x10^-6, 3.5x10^-5 g/kg), L-NAME (N^∞-nitro-L-arginine methyl ester; 1x10^-3 g/kg) or vehicle (dimethyl sulfoxide/ NaCl 0.9%, 1:10^3; v/v) from a jugular vein 15 minutes before coronary occlusion. The coronary artery was occluded for 30 minutes or 5 minutes followed by 30 minutes reperfusion and with the animals then divided randomly in the following groups: (1) sham + vehicle; (2) sham + THP (3.5x10^-5g/kg); (3) operated + vehicle; (4) operated + THP (3.5x10^-7 g/kg); (5) operated + THP (3.5x10^-6 g/kg); (6) operated + THP (3.5x10^-5 g/kg); (7) operated + L-NAME (1x10^-3 g/kg) + THP (3.5x10^-5 g/kg). Before and during the ischemia or reperfusion period, heart rate (HR), blood pressure (BP) and ECG changes were recorded. Ventricular ectopic activity was evaluated according to the diagnostic criteria advocated in the Lambeth Convention. The incidence and duration of ventricular tachyarrhythmias, including ventricular tachycardia (VT) and ventricular fibrillation (VF), in surviving animals was determined. The Mann-Whitney rank-sum test was used to analyze the differences in the duration of VT and VF between vehicle and drug treated groups. The BP and HR changes between vehicle and drug treated rats in the arrhythmia study were analyzed by ANOVA (analysis of variance) followed by Bonferroni's test. The difference in the percentage incidence of VT, VF and mortality rate was analyzed with a Chi-square test. Table 2 Effect of THP on ischemia-induced arrhythmias in the in vivo anesthetized rat
(§2) Cellular damage was evaluated by measuring the plasma LDH. Arterial blood samples were drawn from the carotid catheter at the end of ischemia or ischemia-reperfusion, collected in heparinized tubes. The blood was kept at 4°C until it was centrifuged at 2000 xg for 15 minutes. The plasma was recovered and aliquots were used for determination of LDH activity with a commercial kit from Sigma. The deproteinized plasma samples were frozen and kept until analysis. NO was measured by the NO/ozone chemiluminescence technique described in Yanu F. et al., (1997) Clin. Chem. 43:657-662. The difference in plasma NO and LDH were analyzed statistically using unpaired Student's t-test. Table 5 Effects of THP on LDH (U/L) release
Nitric oxide (NO) release is measured by the presence of nitrite (NO2^-) and nitrate (NO3^-) in the plasma from an animal with 30 minutes ischemia or 5 minutes followed by 30 minutes reperfusion. In sham animals, NO is measured to be 9.6±2.3 and 7.6±0.9µmol/L without and with THP pretreatment, respectively. In the operated animals, THP exerts a dramatically increase of plasma NO; at a dose of 3.5x10^-6 g/kg, there are 2- and 3.5-fold increases compared to that of the untreated (vehicle) ischemic or ischemic-reperfused animals, respectively (Table 6).

[2] = tested on: isolated guinea pig hearts; experiment: Reperfusion-induced ventricular fibrillation in isolated guinea pig hearts subjected to global ischemia
Procedure: The isolated guinea pig hearts were ligated by global ischemia. Reperfusion was achieved by releasing the tension applyied to the ligature. Various concentrations of THP were then administered and the ventricular fibrillarion (VF) was recorded. Table 1 Effects of THP on reperfusion-induced ventricular fibrillation in isolated guinea pig hearts subjected to global ischemia
(§3) Similarly, 10µM THP can be effective in inhibiting the cardiac arrhythmia induced in the isolated guinea pig heart subjected to global ischemia followed by reperfusion (Table 1). The structure of coronary arteries between rat and guinea pig are not alike, THP, however, can be effective in inhibiting the arrhythmia induced in the isolated heart subjected to ischemia-reperfusion in both animals.

plasma LDH = experiment: Plasma LDH release at the end of ischemia or ischemia-reperfusion; format: in vivo, rats; conditions: for LDH (U/L) release, Ischemic / LDH (U/L) release, Reperfused: Operated
Procedure: as §1, §2
The biochemical indicator of cellular damage (LDH release) is determined in ischemia and the ischemia-reperfusion period. Low LDH activity can be seen in the control group (123.6±20.6 U/L) before occlusion. After the occlusion or occlusion-reperfusion, a large increase of the enzyme is found in the plasma of rats given operated-vehicle (500.5±81.4 U/L and 273.7±29.2 U/L, respectively). However, administration of THP attenuates LDH release with a dose-dependent manner during ischemia or ischemia-reperfusion (Table 5).

isolated rat hearts = experiment: Arrhythmia induced by ligation-reperfusion in isolated rat heart
Procedure: The isolated rat hearts were ligated by a temporary tightening of the silk ligature around the left main coronary artery to induce myocardial ischemia. Reperfusion was achieved by releasing the tension applying to the ligature to induce arrhythmia. 10µM THP was then administered and the atrial and ventricular electrograms were recorded.
as §3

[3] = Sham-operated, THP 3.5x10^-5 g/kg

COc1cc2c(cc1OC)-c1c(O)c(OC)cc3c1C(C2)N(C)CC3 (single isomer, unassigned; (+)) [THP, (+)-Thaliporphine]
reversal of ouabain-induced arrhythmia [1]: effective in reversing the arrhythmia | increase of plasma NO compared to untreated (vehicle) ischemic animals (plasma NO; 3.5x10^-6 g/kg, ischemic): 2 fold | increase of plasma NO compared to untreated (vehicle) ischemic-reperfused animals (plasma NO; 3.5x10^-6 g/kg, ischemic-reperfused): 3.5 fold | NO (µmol/L) release, Ischemic (plasma NO; THP 3.5x10^-5 g/kg): 19.1 ± 5.5 µmol/L | NO (µmol/L) release, Reperfused (plasma NO; THP 3.5x10^-5 g/kg): 30.4 ± 1.9 µmol/L | NO (µmol/L) release, Ischemic (plasma NO; THP 3.5x10^-6 g/kg): 19.4 ± 4.7 µmol/L | NO (µmol/L) release, Reperfused (plasma NO; THP 3.5x10^-6 g/kg): 28.4 ± 4.3 µmol/L | NO (µmol/L) release, Ischemic (plasma NO; THP 3.5x10^-7 g/kg): 6.6 ± 0.6 µmol/L | NO (µmol/L) release, Reperfused (plasma NO; THP 3.5x10^-7 g/kg): 8.0 ± 1.7 µmol/L | NO (µmol/L) release, Non-ischemic (plasma NO; [3]): 7.6 ± 0.9 µmol/L | %VF ([2]; 3 µM): 25* % | VF (number of hearts) ([2]; 3 µM, N 8): 2 | %VF ([2]; 10 µM): 0* % | VF (number of hearts) ([2]; 10 µM, N 6): 0 | LDH (U/L) release, Ischemic (plasma LDH; THP 3.5x10^-5 g/kg): 132.2±33.2 U/L | LDH (U/L) release, Reperfused (plasma LDH; THP 3.5x10^-5 g/kg): 143.8±11.7 U/L | LDH (U/L) release, Ischemic (plasma LDH; THP 3.5x10^-6 g/kg): 171.7±56.9 U/L | LDH (U/L) release, Reperfused (plasma LDH; THP 3.5x10^-6 g/kg): 219.6±31.0 U/L | LDH (U/L) release, Ischemic (plasma LDH; THP 3.5x10^-7 g/kg): 349.5±55.0 U/L | LDH (U/L) release, Reperfused (plasma LDH; THP 3.5x10^-7 g/kg): 202.2±30.4 U/L | LDH (U/L) release, Non-ischemic (plasma LDH; [3]): 92.6±7.5 U/L | effect on polymorphic ventricular tachyrhythmia induced by ischemia-reperfusion (isolated rat hearts; 10 µM, FIG. 5 (a)): conversion of polymorphic ventricular tachyrhythmia induced by ischemia-reperfusion to normal sinus rhythm | IC50 (isolated rat hearts; 0.5 h, isolated rat heart, 30 minutes ligation followed by reperfusion, 3-30µM, read-out: IC50, reversing the cardiac arrhythmia): 15.7 µM
